Experimental findings from patent US11999723B2, “Pyrazole-containing macrophage migration inhibitory factor inhibitors” (priority 2018, dated 2024) are described below.

≈ marks a conversion by molar mass, not a printed value. Where “and” joins values, the source holds several entries; their conditions need not be identical. Equal values may be shown once. Read-outs that look alike come from different tables or passages of the source.

The nature of data set [1]: Aqueous solubility, shake-flask method. It is filed as physicochemical. Conditions: Britton-Robinson buffer at pH 6.5; for solubility at 48 h: 30 °C, aqueous buffer, thermodynamic from solid. On the procedure: Aqueous solubility values of selected compounds were obtained via the shake-flask method. The solid sample (1-4 mg) was suspended in 1.5-2.0 mL Britton-Robinson (BR) buffer (0.04 M acetic acid, 0.04 M phosphoric acid, 0.04 M boric acid, pH 6.5). The mixture, containing excess undissolved compound, was stirred at 30° C. for 48 hours. The saturated solution was separated from the precipitate by filtration through a 0.45 μm polyethersulfone membrane (VWR International). The filtrate was diluted with BR buffer if necessary, then cut with an equal volume of DMSO. UV-vis absorbance was measured with an Agilent 8453 UV-visible Spectroscopy System (200-900 nm). Calibration curves were prepared with sample concentrations ranging from 0.24 μg/mL-0.25 mg/mL in 50:50 DMSO/BR buffer. Reported solubility results are the average values of two shake-flask experiments run in parallel. Piroxicam (purchased from Sigma-Aldrich) was used as a control, using BR buffer at pH 3.73.
The compounds reported here are listed in Table 2 along with the results from the tautomerase assay. The identity of assayed compounds was confirmed by ^1H and ^13C NMR and high-resolution mass spectrometry; HPLC analyses established purity as >95%. As in prior studies, the inhibition constants Ki were determined using HPP as the substrate. Inhibitory activity is monitored by measuring formation of the borate complex of the enol product at 305 nm using a Tecan Infinite F500 plate reader. In addition, the aqueous solubilities of several compounds were measured with a shake-flask procedure. Saturated solutions are filtered (polyethersulfone syringe, 0.2 μm pore) and analyzed by UV-vis spectroscopy (Agilent 8453).

The target of data set [2] is T1, MIF (Homo sapiens (Human), UniProt P14174). As to the kind of experiment: HPP tautomerase assay (inhibition of the tautomerase activity of MIF). It is filed as biochemical. On the procedure:
Inhibition of the tautomerase activity of MIF was measured using the substrate 4-hydroxyphenyl pyruvic acid (HPP) in a procedure largely adapted from previous reports. A solution of HPP (10 mM) in acetate buffer (0.5 M ammonium acetate, pH adjusted to 6.0) was prepared and allowed to incubate overnight in the dark at room temperature to allow for equilibration of the keto and enol forms. Following the incubation period, the HPP solution was stored at 4° C. and used for no more than a week. […] A negative control (containing water and DMSO in lieu of protein and inhibitor, respectively) and a positive control (containing DMSO in lieu of inhibitor) were also prepared. The reaction began upon the addition of HPP solution (final concentration: 1.0 mM and 2.5 mM). […] Absorbance was measured three times for each [inhibitor]-[HPP] combination. […] Reported Ki values represent the average value obtained from two assays performed on different days. (R)-ISO-1 (purchased from Santa Cruz Biotechnology) was used as a control.
Recombinant human MIF was expressed and purified according to published protocols. Briefly, for the purification of MIF, E. coli cell pellets were suspended in lysis buffer (20 mM Tris, pH 7.5; 20 mM sodium chloride; 10% glycerol; 2 mM magnesium chloride; 1 cOmplete mini protease inhibitor cocktail tablet per 250 mL of buffer). The solution was sonicated and centrifuged at 27,000G for 30 mins. The supernatant was filtered through a 0.22 μm syringe filter and loaded on a GE Healthcare Hi-Trap SP HP column in sequence with a GE Healthcare Hi-Trap Q SP column equilibrated with a buffer composed of 20 mM NaCl and 20 mM Tris, pH 7.5. […] To achieve highest purity, the flow-through was further purified with a GE Healthcare Superdex 200 column. The purified protein was concentrated with a 10 kDa centrifugal filter unit to 30 mg/mL, flash-frozen in liquid nitrogen, and stored at −80° C.
As in prior studies, the inhibition constants Ki were determined using HPP as the substrate. […] In addition, the aqueous solubilities of several compounds were measured with a shake-flask procedure.

For data set [3], the target named is T1, MIF. As to the kind of experiment: Tautomerase assay using 4-hydroxyphenylpyruvate (HPP), initial virtual screening study. It is filed as biochemical. To be noted: at 50 μM; HPP substrate. From the text:
Success in the past has come from exchange of the phenol for a 6:5 fused heteroaromatic incorporating a pyrrole or pyrazole that retains the hydrogen-bond donating character of phenol. However, the MIF active site is too constricted near Asn97 for this approach to be viable; addition of a methyl group ortho to the hydroxyl group for the compound in FIG. 1 leads to a ca. 100-fold loss in activity. Instead, interest has focused on direct replacement of the phenol by a pyrazole. […] Thus, an alternative series from the virtual screening and from de novo design was pursued, which provided the biaryltriazoles including 2. However, interest in 5 was renewed since in another phenol-containing inhibitor series rapid metabolic glucoronidation and sulfation were observed. It was decided to retest 5 in an HPP tautomerase assay using optimized protocols.

Where [4] appears, read: HPP as substrate, MIF tautomerase, read-out: Experimental inhibition constants, Ki.
The mark [5] stands for this setting: Table 3, HPP as substrate, unit inferred, read-out: HPP Ki.

T1 sequence (P14174 2-115): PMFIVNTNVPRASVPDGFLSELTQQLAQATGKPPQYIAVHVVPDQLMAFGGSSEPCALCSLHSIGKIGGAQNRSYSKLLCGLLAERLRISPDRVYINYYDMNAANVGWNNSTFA

With `O=C(O)c1cc(-c2c[nH]nc2F)ccc1Oc1ccc2ccccc2c1` [Compound 8n, 5-(3-Fluoro-1H-pyrazol-4-yl)-2-(naphthalen-2-yloxy)benzoic acid], the solubility (in general, the concentration that dissolves in the medium under given conditions) at 48 h in data set [1] was 681 µg/mL (≈ 1960 µM).

Consider `CCOc1ccc(-c2cccc(Oc3ccc(-c4c[nH]nc4F)cc3C(=O)O)c2)cc1` [Compound 8w, 2-((4′-Ethoxy-[1,1′-biphenyl]-3-yl)oxy)-5-(3-fluoro-1H-pyrazol-4-yl)benzoic acid], for which the Ki (in general, a dissociation constant, usually derived from enzyme kinetics or from competition with a known ligand) is roughly 0.07 µM at MIF [2] and 0.075 µM at MIF [2] (setting [4]). In addition, the concentration in solution in data set [1] (solubility at 48 h) was 1.7 ± 0.7 µg/mL (≈ 4.06 µM).

Turning to `O=C(O)c1cc(-c2cn[nH]c2)ccc1Oc1ccc2ccccc2c1` [Compound 8g, 2-(Naphthalen-2-yloxy)-5-(1H-pyrazol-4-yl)benzoic acid], at MIF [2] (setting [4]), the Ki turned out to be 4.3 µM. In data set [1], this compound gave a solubility at 48 h of 739 µg/mL (≈ 2240 µM).

As to `O=C(O)c1cccc(-c2cn[nH]c2)c1` [Compound 5, reference compound], the aqueous solubility in data set [1] was 927+88 μg/mL. On MIF [3], this compound returned a maximum inhibition of 30%.

Regarding `O=C(O)c1cc(-c2c[nH]nc2F)ccc1Oc1cccc(-c2ccc(OCCCN3CCOCC3)cc2)c1` [Compound 8x, 5-(3-Fluoro-1H-pyrazol-4-yl)-2-((4′-(3-morpholinopropoxy)-[1,1′-biphenyl]-3-yl)oxy)benzoic acid], the solubility at 48 h in data set [1] is 34.6 µg/mL and 67 µM.

On to `NS(=O)(=O)c1cc(-c2cn[nH]c2)ccc1Oc1ccc2ccccc2c1` [Compound 8i, 2-(Naphthalen-2-yloxy)-5-(1H-pyrazol-4-yl)benzenesulfonamide], for which, at MIF [2] (setting [4]), the Ki turned out to be 5.6 µM. The same compound yielded a solubility at 48 h in data set [1] of 55.2 µg/mL (≈ 151 µM).

Take `CCc1cc(Oc2ccc(-c3c[nH]nc3F)cc2C(=O)O)cc2ccccc12` [Compound 8o, 2-((4-Ethylnaphthalen-2-yl)oxy)-5-(3-fluoro-1H-pyrazol-4-yl)benzoic acid]: the Ki at MIF [2] (setting [4]) came out at 0.15 µM. Also, the “lowering of the Ki relative to 8n” value on MIF [2] (HPP tautomerase assay) came to 3 fold.

In the case of `O=C(O)c1cc(-c2cn[nH]c2)ccc1Oc1cccc(Cl)c1` [Compound 9f, 2-(3-chlorophenoxy)-5-(1H-pyrazol-4-yl)benzoic acid], the Ki on MIF [2] (setting [5]) was found to be 20 µM.

On to `O=C(O)c1cc(-c2cn[nH]c2)ccc1-c1cccc2ccccc12` [Compound 6b, 2-(Naphthalen-1-yl)-5-(1H-pyrazol-4-yl)benzoic acid], for which, on MIF [2] (setting [4]), the Ki came to 19.5 µM.

Consider `O=C(O)c1cc(-c2cn[nH]c2)ccc1[S+]([O-])c1ccccc1` (centres unmarked) [Compound 9r, 2-(phenylsulfinyl)-5-(1H-pyrazol-4-yl)benzoic acid], for which the Ki at MIF [2] (setting [5]) amounted to 13 µM.

Turning to `Cc1cc(C)cc(-c2cccc(Oc3ccc(-c4c[nH]nc4F)cc3C(=O)O)c2)c1` [Compound 8v, 2-((3′,5′-Dimethyl-[1,1′-biphenyl]-3-yl)oxy)-5-(3-fluoro-1H-pyrazol-4-yl)benzoic acid], the Ki at MIF [2] (setting [4]) was 0.24 µM.

As to `O=C(O)c1cc(-c2cn[nH]c2)ccc1Oc1ccc2occc2c1` [Compound 9o, 2-(benzofuran-5-yloxy)-5-(1H-pyrazol-4-yl)benzoic acid], the Ki on MIF [2] (setting [5]) worked out at 3.8 µM.

With `O=C(O)c1cc(-c2cn[nH]c2)ccc1Oc1ccc(Cl)cc1` [Compound 9g, 2-(4-chlorophenoxy)-5-(1H-pyrazol-4-yl)benzoic acid], the Ki on MIF [2] (setting [5]) was 8.4 µM.

For `O=C(O)c1cccc(Oc2ccc(-c3cn[nH]c3)cc2C(=O)O)c1` [Compound 9n, 2-(3-carboxyphenoxy)-5-(1H-pyrazol-4-yl)benzoic acid], on MIF [2] (setting [5]), the Ki turned out to be 9.4 µM.
